According to patent publication US20120148595A1, “GABA-LINKED ANTHRACYCLINE-LIPID CONJUGATES” (Luitpold Pharmaceuticals, Inc., priority 2009, published 2012):
Read-outs that look alike come from different tables or passages of the source.

What was measured:
[1] = tested on: Madison 109 (M109) mouse lung carcinoma
Protocol: In all of the following in vivo experiments, the parent compound, doxorubicin, was injected intravenously (i.v.) in saline, while the fatty acid conjugates of doxorubicin were injected i.v. in 10% Cremophor® EL-P/10% ethanol/80% saline. The dosing schedule was Q3D×5.
T-C in this assay is defined as the time in days for the drug-treated tumors to double their mass three times subtracted […] to double their mass three times.

HT-29 human colon tumor = assay: nude mouse xenograft model of the HT-29 human colon tumor; format: in vivo; conditions: nude mouse
Protocol: (§1) The dosing schedule was Q3D×5.
In the nude mouse xenograft model of the HT-29 human colon tumor (Table 3), doxorubicin produced a T-C delay of 15.3 days at the MTD dose of 6 mg/kg, whereas P-367 (LOC-GABA-doxorubicin) produced a T-C delay of 32 days at 50 mg/kg and 22 at 25 mg/kg. Note that the activity of the lowest dose of LOC-GABA-doxorubicin is approximately equivalent to the highest, MTD of doxorubicin itself.

[2] = tested on: MDA-MB-435 human breast tumor; assay: nude mouse xenograft model of the MDA-MB-435 human breast tumor; format: in vivo; conditions: nude mouse
Protocol: as §1
In the nude mouse xenograft model of the MDA-MB-435 human breast tumor (Table 4), doxorubicin produced a T-C delay of 14 days at the approximate MTD dose of 6 mg/kg (1/10 drug-related deaths). In the same model, LOC-GABA-doxorubicin produced a T-C delay of 13 days at 50 mg/kg (6/10 drug-related deaths) and 1.5 days at 25 mg/kg (0 drug-related deaths).

M109-Lung Tumor = M109-Lung Tumor Model (Table 5, second study with OOC-GABA-doxorubicin); format: in vivo, mouse
Source text: as §1

[3] = Toxicology: maximum tolerated dose, i.v. Q3D×5; conditions: mouse, in vivo, iv, i.v. 5 times on a once every three day schedule
Source text: as §1

[4] = cited from earlier work

## COc1cccc2c1C(=O)c1c(O)c3c(c(O)c1C2=O)C[C@@](O)(C(=O)CO)C[C@@H]3O[C@H]1C[C@H](N)[C@H](O)[C@H](C)O1 [Doxorubicin, reference compound]
[1]; 1 mg/kg i.v. Q3D×5
  Complete Regressions: 0
  Drug-related Deaths: 0/5
  Tumor Growth Delay T-C: 2.6 days
[1]; 2 mg/kg i.v. Q3D×5
  Complete Regressions: 0
  Drug-related Deaths: 0/5
  Tumor Growth Delay T-C: 2.2 days
[1]; 4 mg/kg i.v. Q3D×5
  Complete Regressions: 0
  Drug-related Deaths: 0/5
  Tumor Growth Delay T-C: 4.0 days
[1]; 6 mg/kg i.v. Q3D×5
  Complete Regressions: 0
[1]; 6 mg/kg i.v. Q3D×5, time for tumors to double their mass three times, treated vs vehicle
  Tumor Growth Delay T-C: 5.7 days
[1]; at any dose
  complete responses: no complete responses
HT-29 human colon tumor; 2 mg/kg i.v. Q3D×5
  Complete Regressions: 0
  Days Delay T-C: 2.2 days
  Drug-related Deaths: 0/10
HT-29 human colon tumor; 4 mg/kg i.v. Q3D×5
  Complete Regressions: 0
  Days Delay T-C: 4.0 days
  Drug-related Deaths: 0/10
HT-29 human colon tumor; 6 mg/kg i.v. Q3D×5
  Complete Regressions: 0
  Days Delay T-C: 5.7 days
  Drug-related Deaths: 0/10
HT-29 human colon tumor; 6 mg/kg i.v. Q3D×5, listed as doxorubicin
  Days Delay T-C: 15.3 days
[2]; 2 mg/kg i.v. Q3D×5
  Complete Regressions: 0
  Days Delay T-C: 0.0 days
  Drug-related Deaths: 0/5
[2]; 4 mg/kg i.v. Q3D×5
  Complete Regressions: 0
  Days Delay T-C: 6.6 days
  Drug-related Deaths: 0/5
[2]; 6 mg/kg i.v. Q3D×5
  Complete Regressions: 0
  Days Delay T-C: 14 days
  Drug-related Deaths: 1/10
M109-Lung Tumor; 2 mg/kg i.v. Q3D×5
  Complete Regressions: 0
  Days Delay T-C: 0.0 days
  Drug-related Deaths: 0/5
M109-Lung Tumor; 4 mg/kg i.v. Q3D×5
  Complete Regressions: 0
  Days Delay T-C: 1.4 days
  Drug-related Deaths: 0/5
M109-Lung Tumor; 6 mg/kg i.v. Q3D×5
  Complete Regressions: 0
  Days Delay T-C: 0.9 days
  Drug-related Deaths: 0/5
M109-Lung Tumor; 8 mg/kg i.v. Q3D×5
  Complete Regressions: 0
  Days Delay T-C: 4.6 days
  Drug-related Deaths: 0/5
[3]
  MTD: 6 mg/kg
[3]; nude
  MTD: ~6 mg/kg
[4]; cumulative dose 550 mg/m^2
  incidence of cardiomyopathy: 7%
[4]; cumulative dose 600 mg/m^2
  incidence of cardiomyopathy: 15%
[4]; cumulative dose 700 mg/m^2
  incidence of cardiomyopathy: 30%
